The source made the active and inactive calls. The rule behind the calls is not given here. Numbered stars: 1 amine (or outer) side, 2 acyl side, 3 side chain; on linkers, the order of the positions; unused ones are H or OH. Square brackets hold non-standard residues; d marks the D form. Peptide text beside a SMILES is read from it. X1 = CCCCC[C@H](O[*:1])C(=O)[*:2]; NMeAhp(2) = CCCCC[C@H](NC)C(=O)O; Ahp(2) = CCCCC[C@H](N)C(=O)O; dNMeA = CN[C@H](C)C(=O)O

The target in one data set is Ryanodine receptor 2 (Mus musculus) (UniProt E9Q401). In words: Inhibition of RyR2-mediated calcium spark frequency in saponin-permeabilized left ventricular myocytes of C57BL/6J mouse at 25 uM incubated for 15 min by Fluo-4 dye based analysis. To be noted: Ventricular myocyte. The data set is classed as cell-based.
Sequence of Ryanodine receptor 2 (Mus musculus) (E9Q401 whole entry): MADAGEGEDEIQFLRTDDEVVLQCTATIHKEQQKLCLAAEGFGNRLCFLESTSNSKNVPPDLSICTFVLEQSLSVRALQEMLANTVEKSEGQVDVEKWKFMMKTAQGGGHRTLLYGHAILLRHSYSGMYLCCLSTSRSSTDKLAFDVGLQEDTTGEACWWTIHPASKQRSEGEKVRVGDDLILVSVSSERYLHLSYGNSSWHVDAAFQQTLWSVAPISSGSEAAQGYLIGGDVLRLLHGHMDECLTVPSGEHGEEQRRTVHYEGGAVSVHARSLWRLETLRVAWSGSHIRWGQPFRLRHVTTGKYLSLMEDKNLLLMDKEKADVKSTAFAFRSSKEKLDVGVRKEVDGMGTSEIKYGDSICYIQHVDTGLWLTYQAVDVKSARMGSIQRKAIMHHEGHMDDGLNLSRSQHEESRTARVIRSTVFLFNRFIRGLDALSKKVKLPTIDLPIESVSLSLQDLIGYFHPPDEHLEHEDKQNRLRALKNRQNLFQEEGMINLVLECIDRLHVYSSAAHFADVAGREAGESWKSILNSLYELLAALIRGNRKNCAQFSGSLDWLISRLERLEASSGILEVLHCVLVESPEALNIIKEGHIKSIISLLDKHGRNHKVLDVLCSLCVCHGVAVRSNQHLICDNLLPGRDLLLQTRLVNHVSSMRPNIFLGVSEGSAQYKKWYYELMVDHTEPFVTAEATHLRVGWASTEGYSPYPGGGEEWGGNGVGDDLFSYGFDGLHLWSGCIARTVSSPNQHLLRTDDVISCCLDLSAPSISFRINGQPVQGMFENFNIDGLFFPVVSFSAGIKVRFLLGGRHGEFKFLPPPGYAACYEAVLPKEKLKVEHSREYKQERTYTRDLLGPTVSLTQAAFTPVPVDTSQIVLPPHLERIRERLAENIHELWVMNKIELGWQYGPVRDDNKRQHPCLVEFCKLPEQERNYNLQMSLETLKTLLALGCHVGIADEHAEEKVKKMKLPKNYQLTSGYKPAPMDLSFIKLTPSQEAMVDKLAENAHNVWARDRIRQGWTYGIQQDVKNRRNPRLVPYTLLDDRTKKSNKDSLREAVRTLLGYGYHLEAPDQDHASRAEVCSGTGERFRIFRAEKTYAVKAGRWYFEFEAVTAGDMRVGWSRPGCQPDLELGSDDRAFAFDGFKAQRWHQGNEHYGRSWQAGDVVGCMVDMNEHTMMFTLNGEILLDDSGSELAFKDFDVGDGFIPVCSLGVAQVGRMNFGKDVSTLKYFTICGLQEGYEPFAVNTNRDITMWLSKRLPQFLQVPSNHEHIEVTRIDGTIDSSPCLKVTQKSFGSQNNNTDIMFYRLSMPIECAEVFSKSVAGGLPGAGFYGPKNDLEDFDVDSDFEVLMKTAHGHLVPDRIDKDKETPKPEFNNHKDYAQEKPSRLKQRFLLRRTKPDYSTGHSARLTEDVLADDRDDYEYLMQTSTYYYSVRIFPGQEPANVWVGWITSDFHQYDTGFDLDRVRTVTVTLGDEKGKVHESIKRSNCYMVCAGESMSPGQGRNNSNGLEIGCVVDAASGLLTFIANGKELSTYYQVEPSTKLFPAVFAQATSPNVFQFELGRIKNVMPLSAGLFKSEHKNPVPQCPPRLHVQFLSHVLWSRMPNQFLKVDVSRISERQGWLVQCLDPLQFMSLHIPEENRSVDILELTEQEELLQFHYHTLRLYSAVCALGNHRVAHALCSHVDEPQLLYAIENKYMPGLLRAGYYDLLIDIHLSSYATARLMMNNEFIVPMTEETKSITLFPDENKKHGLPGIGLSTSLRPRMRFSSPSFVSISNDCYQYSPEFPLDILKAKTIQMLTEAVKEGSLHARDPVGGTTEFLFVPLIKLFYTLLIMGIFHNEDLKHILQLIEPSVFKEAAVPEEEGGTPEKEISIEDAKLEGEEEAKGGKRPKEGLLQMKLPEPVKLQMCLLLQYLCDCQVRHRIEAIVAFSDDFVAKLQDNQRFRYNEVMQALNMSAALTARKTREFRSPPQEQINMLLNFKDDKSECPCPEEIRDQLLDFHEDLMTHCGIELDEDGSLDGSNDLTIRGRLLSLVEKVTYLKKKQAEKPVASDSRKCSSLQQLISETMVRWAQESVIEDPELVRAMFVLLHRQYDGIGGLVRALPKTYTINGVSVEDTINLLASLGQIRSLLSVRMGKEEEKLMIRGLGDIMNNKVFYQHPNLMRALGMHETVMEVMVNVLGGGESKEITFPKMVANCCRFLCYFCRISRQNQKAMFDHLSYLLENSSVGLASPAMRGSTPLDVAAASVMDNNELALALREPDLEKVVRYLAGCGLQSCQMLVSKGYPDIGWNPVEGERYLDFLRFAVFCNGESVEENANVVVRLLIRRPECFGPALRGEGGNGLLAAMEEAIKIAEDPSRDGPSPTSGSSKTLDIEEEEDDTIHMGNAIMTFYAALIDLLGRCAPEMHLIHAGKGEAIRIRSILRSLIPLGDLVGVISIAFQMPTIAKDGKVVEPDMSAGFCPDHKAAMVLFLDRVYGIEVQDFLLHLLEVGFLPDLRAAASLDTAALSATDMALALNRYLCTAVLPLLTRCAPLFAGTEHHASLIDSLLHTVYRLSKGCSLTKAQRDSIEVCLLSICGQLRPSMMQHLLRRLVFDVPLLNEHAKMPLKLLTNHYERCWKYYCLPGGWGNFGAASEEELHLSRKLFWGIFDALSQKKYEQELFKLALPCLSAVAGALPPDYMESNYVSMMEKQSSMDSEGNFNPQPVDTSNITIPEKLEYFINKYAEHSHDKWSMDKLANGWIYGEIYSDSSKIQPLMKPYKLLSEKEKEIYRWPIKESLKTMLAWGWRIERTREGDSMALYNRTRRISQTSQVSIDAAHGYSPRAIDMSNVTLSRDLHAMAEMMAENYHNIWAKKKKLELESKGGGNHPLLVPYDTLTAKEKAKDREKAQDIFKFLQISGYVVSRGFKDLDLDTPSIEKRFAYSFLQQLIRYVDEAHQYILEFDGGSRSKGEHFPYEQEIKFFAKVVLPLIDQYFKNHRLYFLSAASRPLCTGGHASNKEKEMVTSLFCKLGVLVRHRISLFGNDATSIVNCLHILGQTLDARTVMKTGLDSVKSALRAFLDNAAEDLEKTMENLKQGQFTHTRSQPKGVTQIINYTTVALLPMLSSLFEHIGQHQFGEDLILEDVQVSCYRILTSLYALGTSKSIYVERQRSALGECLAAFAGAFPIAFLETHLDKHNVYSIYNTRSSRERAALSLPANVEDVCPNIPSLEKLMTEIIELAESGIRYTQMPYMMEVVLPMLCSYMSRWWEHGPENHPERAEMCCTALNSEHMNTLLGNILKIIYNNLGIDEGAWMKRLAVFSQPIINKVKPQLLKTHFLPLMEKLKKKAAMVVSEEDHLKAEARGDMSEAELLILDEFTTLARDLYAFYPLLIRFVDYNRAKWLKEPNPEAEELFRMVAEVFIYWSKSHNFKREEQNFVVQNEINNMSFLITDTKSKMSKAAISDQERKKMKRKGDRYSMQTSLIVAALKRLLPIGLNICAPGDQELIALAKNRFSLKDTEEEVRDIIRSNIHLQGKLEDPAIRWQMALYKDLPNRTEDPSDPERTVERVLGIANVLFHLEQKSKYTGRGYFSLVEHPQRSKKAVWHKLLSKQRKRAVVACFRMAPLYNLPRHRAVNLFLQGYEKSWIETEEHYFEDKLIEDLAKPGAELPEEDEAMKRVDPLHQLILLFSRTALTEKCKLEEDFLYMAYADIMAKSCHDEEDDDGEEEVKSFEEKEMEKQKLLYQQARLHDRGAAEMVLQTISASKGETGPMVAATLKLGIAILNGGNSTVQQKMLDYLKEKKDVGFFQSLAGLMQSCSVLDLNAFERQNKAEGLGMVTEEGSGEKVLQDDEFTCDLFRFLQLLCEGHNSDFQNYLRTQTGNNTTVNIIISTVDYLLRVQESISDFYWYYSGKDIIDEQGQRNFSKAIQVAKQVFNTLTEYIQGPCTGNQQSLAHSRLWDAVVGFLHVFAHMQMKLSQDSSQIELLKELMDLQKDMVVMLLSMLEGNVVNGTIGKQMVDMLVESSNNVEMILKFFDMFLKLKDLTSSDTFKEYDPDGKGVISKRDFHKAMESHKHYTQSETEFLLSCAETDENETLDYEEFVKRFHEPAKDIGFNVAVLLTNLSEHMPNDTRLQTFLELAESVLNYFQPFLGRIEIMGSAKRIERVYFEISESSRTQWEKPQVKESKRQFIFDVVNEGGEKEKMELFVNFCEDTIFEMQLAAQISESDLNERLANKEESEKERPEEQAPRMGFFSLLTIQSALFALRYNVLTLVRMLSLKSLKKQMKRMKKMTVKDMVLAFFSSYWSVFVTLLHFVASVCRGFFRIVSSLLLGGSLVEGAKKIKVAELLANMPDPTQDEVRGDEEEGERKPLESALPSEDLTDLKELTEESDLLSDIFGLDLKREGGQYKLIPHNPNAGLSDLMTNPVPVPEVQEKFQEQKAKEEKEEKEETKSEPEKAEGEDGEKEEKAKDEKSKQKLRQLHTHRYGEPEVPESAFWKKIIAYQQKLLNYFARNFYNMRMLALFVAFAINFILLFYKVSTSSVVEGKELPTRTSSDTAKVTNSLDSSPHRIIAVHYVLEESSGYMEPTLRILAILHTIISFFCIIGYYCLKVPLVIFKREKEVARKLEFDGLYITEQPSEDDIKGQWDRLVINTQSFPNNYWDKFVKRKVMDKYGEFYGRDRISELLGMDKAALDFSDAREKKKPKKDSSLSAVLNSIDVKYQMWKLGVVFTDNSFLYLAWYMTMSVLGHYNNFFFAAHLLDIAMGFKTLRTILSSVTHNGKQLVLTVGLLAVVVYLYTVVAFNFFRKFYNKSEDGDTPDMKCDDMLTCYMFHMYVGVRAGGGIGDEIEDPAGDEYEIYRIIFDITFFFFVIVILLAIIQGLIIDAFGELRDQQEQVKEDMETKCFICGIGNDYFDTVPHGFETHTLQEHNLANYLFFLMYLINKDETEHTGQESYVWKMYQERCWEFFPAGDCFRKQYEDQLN
For `CCCCC[C@@H]1OC(=O)[C@@H](C)N(C)C(=O)[C@H](CCCCC)OC(=O)[C@@H](C)N(C)C(=O)[C@H](CCCCC)OC(=O)[C@@H](C)NC(=O)[C@H](CCCCC)OC(=O)[C@@H](C)NC1=O`, the inhibition result is “inactive”. Same read-out and setting: in the case of `CCCCC[C@@H]1OC(=O)[C@@H](C)N(C)C(=O)[C@H](CCCCC)N(C)C(=O)[C@@H](C)N(C)C(=O)[C@H](CCCCC)N(C)C(=O)[C@@H](C)N(C)C(=O)[C@H](CCCCC)N(C)C(=O)[C@@H](C)N(C)C1=O` it was “inactive”; in that of `CCCCC[C@@H]1NC(=O)[C@@H](C)N(C)C(=O)[C@H](CCCCC)OC(=O)[C@@H](C)N(C)C(=O)[C@H](CCCCC)NC(=O)[C@@H](C)N(C)C(=O)[C@H](CCCCC)OC(=O)[C@@H](C)N(C)C1=O` (cyclo([Ahp(2)][dNMeA][X1][dNMeA][Ahp(2)][dNMeA][X1][dNMeA])), “inactive”; in that of `CCCCC[C@H]1C(=O)N[C@H](C)C(=O)N(C)[C@@H](CCCCC)C(=O)N[C@H](C)C(=O)N(C)[C@@H](CCCCC)C(=O)N[C@H](C)C(=O)N(C)[C@@H](CCCCC)C(=O)N(C)[C@H](C)C(=O)N1C` (cyclo([NMeAhp(2)][dA][NMeAhp(2)][dA][NMeAhp(2)][dA][NMeAhp(2)][dNMeA])), “inactive”. Regarding `CCCCC[C@@H]1NC(=O)[C@@H](C)N(C)C(=O)[C@H](CCCCC)NC(=O)[C@@H](C)N(C)C(=O)[C@H](CCCCC)N(C)C(=O)[C@@H](C)N(C)C(=O)[C@H](CCCCC)NC(=O)[C@@H](C)N(C)C1=O` (cyclo([Ahp(2)][dNMeA][Ahp(2)][dNMeA][Ahp(2)][dNMeA][NMeAhp(2)][dNMeA])), the inhibition entry is “inactive”.

Turning to `CCCCC[C@@H]1NC(=O)[C@@H](C)N(C)C(=O)[C@H](CCCCC)N(C)C(=O)[C@@H](C)N(C)C(=O)[C@H](CCCCC)N(C)C(=O)[C@@H](C)N(C)C(=O)[C@H](CCCCC)NC(=O)[C@@H](C)N(C)C1=O` (cyclo([Ahp(2)][dNMeA][Ahp(2)][dNMeA][NMeAhp(2)][dNMeA][NMeAhp(2)][dNMeA])), the inhibition entry was “inactive”. Turning to `CCCCC[C@@H]1OC(=O)[C@@H](C)N(C)C(=O)[C@H](CCCCC)OC(=O)[C@@H](C)N(C)C(=O)[C@H](CCCCC)OC(=O)[C@@H](C)N(C)C(=O)[C@H](CCCCC)OC(=O)[C@@H](C)NC1=O`, the inhibition entry is “inactive”. Regarding `CCCCC[C@@H]1NC(=O)[C@@H](C)N(C)C(=O)[C@H](CCCCC)N(C)C(=O)[C@@H](C)N(C)C(=O)[C@H](CCCCC)N(C)C(=O)[C@@H](C)N(C)C(=O)[C@H](CCCCC)N(C)C(=O)[C@@H](C)N(C)C1=O` (cyclo([Ahp(2)][dNMeA][NMeAhp(2)][dNMeA][NMeAhp(2)][dNMeA][NMeAhp(2)][dNMeA])), the inhibition entry was “inactive”.

For the compound `CCCCC[C@@H]1NC(=O)[C@@H](C)N(C)C(=O)[C@H](CCCCC)OC(=O)[C@@H](C)N(C)C(=O)[C@H](CCCCC)OC(=O)[C@@H](C)N(C)C(=O)[C@H](CCCCC)OC(=O)[C@@H](C)N(C)C1=O` (cyclo([Ahp(2)][dNMeA][X1][dNMeA][X1][dNMeA][X1][dNMeA])), the inhibition entry is “Active”. With `CCCCC[C@@H]1OC(=O)[C@@H](C)N(C)C(=O)[C@H](CCCCC)OC(=O)[C@@H](C)NC(=O)[C@H](CCCCC)OC(=O)[C@@H](C)NC(=O)[C@H](CCCCC)OC(=O)[C@@H](C)NC1=O`, the inhibition entry is “inactive”. The same measure, in the same setting: in the case of `CCCCC[C@@H]1OC(=O)[C@@H](C)N(C)C(=O)[C@H](CCCCC)OC(=O)[C@@H](C)N(C)C(=O)[C@H](CCCCC)OC(=O)[C@@H](C)N(C)C(=O)[C@H](CCCCC)OC(=O)[C@@H](C)N(C)C1=O` it was “inactive”; in that of `CCCCC[C@@H]1NC(=O)[C@@H](C)N(C)C(=O)[C@H](CCCCC)N(C)C(=O)[C@@H](C)N(C)C(=O)[C@H](CCCCC)NC(=O)[C@@H](C)N(C)C(=O)[C@H](CCCCC)N(C)C(=O)[C@@H](C)N(C)C1=O` (cyclo([Ahp(2)][dNMeA][NMeAhp(2)][dNMeA][Ahp(2)][dNMeA][NMeAhp(2)][dNMeA])), “inactive”.

Take `CCCCC[C@@H]1OC(=O)[C@@H](C)N(C)C(=O)[C@H](CCCCC)N(C)C(=O)[C@@H](C)N(C)C(=O)[C@H](CCCCC)N(C)C(=O)[C@@H](C)N(C)C(=O)[C@H](CCCCC)OC(=O)[C@@H](C)N(C)C1=O`: the inhibition entry was “inactive”. `CCCCC[C@H]1C(=O)N[C@H](C)C(=O)N(C)[C@@H](CCCCC)C(=O)N(C)[C@H](C)C(=O)N(C)[C@@H](CCCCC)C(=O)N(C)[C@H](C)C(=O)N(C)[C@@H](CCCCC)C(=O)N(C)[C@H](C)C(=O)N1C` (cyclo([NMeAhp(2)][dA][NMeAhp(2)][dNMeA][NMeAhp(2)][dNMeA][NMeAhp(2)][dNMeA])): the inhibition entry is “inactive”. On the same count and under the same terms, as for `CCCCC[C@H]1C(=O)N[C@H](C)C(=O)N(C)[C@@H](CCCCC)C(=O)N[C@H](C)C(=O)N(C)[C@@H](CCCCC)C(=O)N(C)[C@H](C)C(=O)N(C)[C@@H](CCCCC)C(=O)N(C)[C@H](C)C(=O)N1C` (cyclo([NMeAhp(2)][dA][NMeAhp(2)][dA][NMeAhp(2)][dNMeA][NMeAhp(2)][dNMeA])), the entry is “inactive”. The same measure, in the same setting: in the case of `CCCCC[C@@H]1NC(=O)[C@@H](C)N(C)C(=O)[C@H](CCCCC)NC(=O)[C@@H](C)N(C)C(=O)[C@H](CCCCC)OC(=O)[C@@H](C)N(C)C(=O)[C@H](CCCCC)NC(=O)[C@@H](C)N(C)C1=O` (cyclo([Ahp(2)][dNMeA][Ahp(2)][dNMeA][Ahp(2)][dNMeA][X1][dNMeA])) it was “inactive”; in that of `CCCCC[C@@H]1OC(=O)[C@@H](C)N(C)C(=O)[C@H](CCCCC)N(C)C(=O)[C@@H](C)N(C)C(=O)[C@H](CCCCC)OC(=O)[C@@H](C)N(C)C(=O)[C@H](CCCCC)N(C)C(=O)[C@@H](C)N(C)C1=O`, “inactive”; in that of `CCCCC[C@@H]1OC(=O)[C@@H](C)N(C)C(=O)[C@H](CCCCC)OC(=O)[C@@H](C)N(C)C(=O)[C@H](CCCCC)N(C)C(=O)[C@@H](C)N(C)C(=O)[C@H](CCCCC)OC(=O)[C@@H](C)N(C)C1=O`, “Active”. The same measure, in the same setting: as for `CCCCC[C@@H]1OC(=O)[C@@H](C)NC(=O)[C@H](CCCCC)OC(=O)[C@@H](C)NC(=O)[C@H](CCCCC)OC(=O)[C@@H](C)NC(=O)[C@H](CCCCC)OC(=O)[C@@H](C)NC1=O`, the entry is “inactive”; as for `CCCCC[C@H]1C(=O)N[C@H](C)C(=O)N(C)[C@@H](CCCCC)C(=O)N(C)[C@H](C)C(=O)N(C)[C@@H](CCCCC)C(=O)N[C@H](C)C(=O)N(C)[C@@H](CCCCC)C(=O)N(C)[C@H](C)C(=O)N1C` (cyclo([NMeAhp(2)][dA][NMeAhp(2)][dNMeA][NMeAhp(2)][dA][NMeAhp(2)][dNMeA])), “inactive”. `CCCCC[C@@H]1NC(=O)[C@@H](C)N(C)C(=O)[C@H](CCCCC)OC(=O)[C@@H](C)N(C)C(=O)[C@H](CCCCC)OC(=O)[C@@H](C)N(C)C(=O)[C@H](CCCCC)NC(=O)[C@@H](C)N(C)C1=O` (cyclo([Ahp(2)][dNMeA][Ahp(2)][dNMeA][X1][dNMeA][X1][dNMeA])): the inhibition result is “inactive”. Still for that read-out and setting: as for `CCCCC[C@@H]1OC(=O)[C@@H](C)N(C)C(=O)[C@H](CCCCC)OC(=O)[C@@H](C)NC(=O)[C@H](CCCCC)OC(=O)[C@@H](C)N(C)C(=O)[C@H](CCCCC)OC(=O)[C@@H](C)NC1=O`, the entry is “inactive”.

`CCCCC[C@@H]1NC(=O)[C@@H](C)N(C)C(=O)[C@H](CCCCC)NC(=O)[C@@H](C)N(C)C(=O)[C@H](CCCCC)NC(=O)[C@@H](C)N(C)C(=O)[C@H](CCCCC)NC(=O)[C@@H](C)N(C)C1=O` (cyclo([Ahp(2)][dNMeA][Ahp(2)][dNMeA][Ahp(2)][dNMeA][Ahp(2)][dNMeA])): the inhibition entry is “inactive”. On the same count and under the same terms, in the case of `CCCCC[C@H]1C(=O)N[C@H](C)C(=O)N(C)[C@@H](CCCCC)C(=O)N[C@H](C)C(=O)N(C)[C@@H](CCCCC)C(=O)N[C@H](C)C(=O)N(C)[C@@H](CCCCC)C(=O)N[C@H](C)C(=O)N1C` (cyclo([NMeAhp(2)][dA][NMeAhp(2)][dA][NMeAhp(2)][dA][NMeAhp(2)][dA])) it was “inactive”; in that of `CCCCC[C@H]1C(=O)N(C)[C@H](C)C(=O)N(C)[C@@H](CCCCC)C(=O)N(C)[C@H](C)C(=O)N(C)[C@@H](CCCCC)C(=O)N(C)[C@H](C)C(=O)N(C)[C@@H](CCCCC)C(=O)N(C)[C@H](C)C(=O)N1C` (cyclo([NMeAhp(2)][dNMeA][NMeAhp(2)][dNMeA][NMeAhp(2)][dNMeA][NMeAhp(2)][dNMeA])), “inactive”.

Tested on in another data set: not listed separately
The experiment in a line: Passive permeability of compound by PAMPA.
Details: not given
Type of data set: ADME.
Regarding `CCCCC[C@@H]1NC(=O)[C@@H](C)N(C)C(=O)[C@H](CCCCC)OC(=O)[C@@H](C)N(C)C(=O)[C@H](CCCCC)OC(=O)[C@@H](C)N(C)C(=O)[C@H](CCCCC)OC(=O)[C@@H](C)N(C)C1=O` (cyclo([Ahp(2)][dNMeA][X1][dNMeA][X1][dNMeA][X1][dNMeA])), the permeability result was “Permeable”. Still for that read-out and setting: in the case of `CCCCC[C@@H]1OC(=O)[C@@H](C)N(C)C(=O)[C@H](CCCCC)OC(=O)[C@@H](C)N(C)C(=O)[C@H](CCCCC)N(C)C(=O)[C@@H](C)N(C)C(=O)[C@H](CCCCC)OC(=O)[C@@H](C)N(C)C1=O` it was “Permeable”.

Values taken from ChEMBL document CHEMBL5523734, “Backbone-Determined Antiarrhythmic Structure-Activity Relationships for a Mirror Image, Oligomeric Depsipeptide Natural Product” (J Med Chem, 2024).
